What was measured:
Assay type in all cases: in vivo
[1] = tested on: C. elegans; experiment: Motility of dauer state C. elegans exposed to PDE inhibitors; conditions: among several PDE inhibitors tested
Description: (§1) The dauer state is morphologically similar to the infective states in juvenile phytoparasitic nematodes.
For this study, worms were contacted with drugs and scored for motility at various time points after the drug treatment to determine how quick the motility defect occurred. Nematodes were scored at 0, 1, 2, 4, 8, and 24 hours after addition of the treatment. Concentrations were 4.9 μM cilostazol, 2.5 μM Rolipram, and 6.6 μM papaverine. […] The time is shown in hours after contact was initiated and the effect was determined by assessing the fraction of contacted works that were motile, relative to control worm motility (i.e., worms not contacted with the tested drug). Cilostazol, rolipram and papaverine were tested. […] The time is shown in hours after contact and the effect was determined by assessing the fraction of contacted works that were motile, relative to control worm motility (controls were worms not contacted with tested drug).

[2] = tested on: C. elegans; experiment: Recovery of motility after contact with PDE inhibitor ceased; conditions: 24 hours exposure, evaluated 24 hours after inhibitor removed
Description: Motility is shown relative to the control condition (i.e., motility of worms not contacted with the test drug). The black bars represent the fraction of motile worms after 24 hours of exposure to the PDE inhibitor. The grey bars represent the fraction of motile worms 24 hours after the exposure to the inhibitor ceased. The experiment was repeated three times and the data points represent the mean plus and minus the standard deviation.
as §1
For the study, nematodes were exposed for 24 hours with the PDE inhibitor (at the concentration indicated in FIG. 15) and then plated out and evaluated for normal motility as described elsewhere in the Examples. […] Motility is shown relative to control motility in worms not contacted with the test drug.

[3] = tested on: C. elegans; experiment: Egg hatching / fecundity of C. elegans continuously exposed to PDE inhibitors; conditions: continuous exposure at concentrations maximally reducing motility; juveniles counted on Day 5; FIG. 6; experiment performed once
Description: The number of newly hatched juveniles on Day 5 was counted and normalized to the reproductive success of the control condition (no inhibitor). This experiment was performed once.
To assess disruption of activities such as developmental progression leading to egg hatching in nematodes, C. elegans eggs are exposed to PDE inhibitors. The nematode eggs are exposed to a range of concentrations of family-specific PDE inhibitors, and inhibitors that prevent egg hatching are identified.
The number of hatched larvae in the treated group was compared to a control (untreated) group and the results are evaluated as a function of time up to 3 days after exposure to the PDE inhibitor.
The ability of these various PDE inhibitors to reduce the fecundity of C. elegans was also examined.

SMILES	effectiveness in reducing motility [1]	reversibility of drug effects on motility [2]	effect on egg hatching (number of newly hatched juveniles relative to control) [3]
Cc1[nH]c(=O)c(C#N)cc1-c1ccncc1 [milrinone]	most effective in reducing motility	reversed after 24 hours	–
Cn1cc(-c2ccncc2)c(-c2ccc(OCc3ccc4ccccc4n3)cc2)n1 [MP10]	most effective in reducing motility	reversed after 24 hours	–
CCOC(=O)C1=C[C@]2(CC)CCCN3CCc4c(n1c1ccccc41)[C@@H]32 [vinpocetine]	–	–	most effective in preventing egg hatching
CC(C)Cn1c(=O)n(C)c(=O)c2[nH]cnc21 [IBMX, 3-isobutyl-1-methylxanthine]	–	–	most effective in preventing egg hatching
COc1ccc(C2CNC(=O)C2)cc1OC1CCCC1 (centres unmarked) [rolipram]	most effective in reducing motility	reversed after 24 hours	–
OCCN(CCO)c1nc(N2CCCCC2)c2nc(N(CCO)CCO)nc(N3CCCCC3)c2n1 [dipyridamole]	–	–	enhanced egg hatching
COc1ccc(Cc2nccc3cc(OC)c(OC)cc23)cc1OC [papaverine]	most effective in reducing motility	reversed after 24 hours	–
O=C1CCc2cc(OCCCCc3nnnn3C3CCCCC3)ccc2N1 [cilostazol]	most effective in reducing motility	reversed after 24 hours	most effective in preventing egg hatching

— patent US11589588B2, “Methods of identification and use of nematicide compounds” (UNIVERSITY OF NEW HAMPSHIRE, priority 2013, dated 2023)
